Test results as given in PubChem BioAssay (NCI).
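A five-concentration, 48-hour dose response in 96-well plates underlies each endpoint, interpolated linearly between surrounding concentrations. GI50 marks 50% less growth. Definition used: TGI = concentration required for complete inhibition of growth.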

Assays:
Assay in all cases: NCI tumour cell line growth inhibition, 48 h
SF-539 CNS = test system: SF-539 CNS
RPMI-8226 leukemia = test system: RPMI-8226 leukemia
IGROV1 ovarian = test system: IGROV1 ovarian
DU-145 prostate = test system: DU-145 prostate
786-0 renal = test system: 786-0 renal
HCT-15 colon = test system: HCT-15 colon
CAKI-1 renal = test system: CAKI-1 renal
SN12C renal = test system: SN12C renal
SW-620 colon = test system: SW-620 colon
TK-10 renal = test system: TK-10 renal

Compound | GI50 (SF-539 CNS) [µM] | TGI (SF-539 CNS) [µM] | GI50 (RPMI-8226 leukemia) [µM] | TGI (RPMI-8226 leukemia) [µM] | GI50 (IGROV1 ovarian) [µM] | TGI (IGROV1 ovarian) [µM] | GI50 (DU-145 prostate) [µM] | TGI (DU-145 prostate) [µM] | GI50 (786-0 renal) [µM] | TGI (786-0 renal) [µM] | GI50 (HCT-15 colon) [µM] | TGI (HCT-15 colon) [µM] | GI50 (CAKI-1 renal) [µM] | TGI (CAKI-1 renal) [µM] | GI50 (SN12C renal) [µM] | TGI (SN12C renal) [µM] | GI50 (SW-620 colon) [µM] | TGI (SW-620 colon) [µM] | GI50 (TK-10 renal) [µM] | TGI (TK-10 renal) [µM]
Cc1cc2nc3c4ccc(Br)cc4n(CCN(C)C)c3nc2cc1C | 1.6 | 3.17 | 2.16 | 5.93 | 1.12 | 3.97 | 2.96 | 9.96 | 1.44 | 7.65 | 0.751 | 6.24 | 1.53 | 5.42 | 1.1 | 6.18 | 0.478 | 1.84 | 1.97 | 7.23
CN1CCN(c2ccc3nc(-c4ccc(OCCCCN5CCN(CCCCN6C(=O)c7cccc8cccc(c78)C6=O)CC5)cc4)[nH]c3c2)CC1 | 33.5 | > 100 | 33.9 | > 100 | 48.4 | > 100 | 29.4 | > 100 | > 100 | > 100 | 35.3 | > 100 | 73.1 | > 100 |  |  | 39.2 | > 100 | 37.4 | > 100
C=CC(C)(O)CC/C=C(\CO)C(=O)OC1C(C)OC(O[C@](C)(C=C)CC/C=C(\CO)C(=O)O[C@H]2C[C@@]3(C(=O)OC4OC(CO)C(O)C(O)C4OC4OC(C)C(OC5OC(CO)C(O)C5O)C(OC5OC(CO)C(O)C(O)C5O)C4O)C(CC2(C)C)C2=CCC4[C@@]5(C)CC[C@H](OC6OC(COC7OC(C)C(O)C(O)C7OC7OCC(O)C(O)C7O)C(O)C(O)C6NC(C)=O)C(C)(C)C5CC[C@@]4(C)[C@]2(C)C[C@H]3O)C(O)C1O (stereo not given in full) | 4.86 | 9.77 | 5 | 18 | 2.96 | 9.63 | 0.131 | 0.512 | 0.155 | 0.668 | 4.72 | 10.6 | 0.196 | 0.916 | 0.0798 | 0.343 | 0.143 | 4.27 | 0.097 | 0.237
NS(=O)(=O)c1ccc(NC(=O)c2cccc(NC3=C(Cl)C(=O)N(Cc4ccccc4)C3=O)c2)cc1 | 11.3 | 26.7 | 3.51 | 14.7 | 4.78 | 19.2 | 11.1 | 25.1 | 21.5 | > 100 | 15.1 | 38.8 | 12.5 | 25.9 | 11.6 | 25.9 | 6.1 | 44.4 | 15.2 | 31.4
O=C(/C=C/c1cccc2ccccc12)Nc1ncc(Cc2ccccc2)s1 | 0.716 | 2.92 | 1.09 | > 100 | 1.27 | > 87.3 | 1.61 | > 100 | 0.704 | 3.27 | 0.507 | > 100 | 0.609 | 3.71 | 1.16 | > 100 | 0.737 | > 100 | 1.69 | 4.87
COc1ccc(-c2nc(C(=O)c3ccccc3)n(CC(=O)c3ccc(Cl)cc3)c2-c2ccc(OC)cc2)cc1 | > 100 | > 100 | > 100 | > 100 | > 100 | > 100 | > 100 | > 100 | > 100 | > 100 | > 100 | > 100 | > 100 | > 100 | > 100 | > 100 | > 100 | > 100 | > 100 | > 100
Cc1cc2nc(-c3c(F)cccc3Cl)n(Cc3c(F)cccc3Cl)c2cc1C | 17.3 | 34.8 | 16.3 | > 100 | 33 | > 100 | 16.1 | 41.4 | 15.8 | 31.3 | 13.9 | 33.3 | 2.92 | 14.6 | 11.7 | 24.2 | 11.8 | 32.4 | 15.1 | 46.5
O=C(/C=C/c1ccco1)c1ccc(Nc2nc(Nc3ccc(F)cc3)nc(Nc3ccc(F)cc3)n2)cc1 | 24.8 | 63.5 | 8.99 | > 100 | 10.7 | 29.6 | 28.8 | > 100 | 48.8 | > 100 | 22.5 | > 100 | 26.7 | 60.5 | 54.8 | > 100 | 19 | > 100 | 48.4 | > 100
COc1cccc2c1cc1c3c(cc4c(c32)OCO4)C(=O)N1 | 4.8 | 21.2 | 5.29 | > 100 | 4.26 | 34.4 | 8.79 | 66.4 | 7.15 | 33.3 | 4.14 | > 100 | 22.4 | > 100 | 2.87 | 19.6 | 4.4 | > 100 | 2.27 | 6.27
COc1ccc(C2=Nc3c/c(=C\c4c(O)[nH]c5cc(Cl)ccc45)ccc3=N2)cc1 | 11.4 | 28 | 1.73 | 4.62 | 17.6 | 50.5 | 6.6 | 21.6 | 7.85 | 20.6 | 3 | 11.5 | 14.5 | 43.6 | 13.9 | 30 | 3.01 | 19 | 21 | 39.3
Cc1c(Cl)cccc1NC(=O)c1sc2nc3c(cc2c1N)CCCC3 | 0.328 |  | 1.61 | > 100 | 0.82 | > 100 | 1.38 | > 100 | 0.681 | > 100 | 0.392 | > 100 | 1.01 | > 100 | 5.88 | > 100 | 0.471 | > 100 | > 100 | > 100
COc1cc2c(cc1OCCCOc1ccc(-c3nc4ccc(N5CCN(C)CC5)cc4[nH]3)cc1)N=C[C@@H]1CCCN1C2=O | < 0.01 | < 0.01 | < 0.01 | < 0.01 |  |  | < 0.01 | 6.98 | < 0.01 | 0.524 | < 0.0212 | 42.8 | < 0.01 | < 0.01 | < 0.01 | < 0.01 | < 0.01 | 15.2 | < 0.01 | 0.492
